{
  "source": "patent US20050020646A1",
  "about": "“Treatment of BPH” (Pfizer Inc., priority 2003, published 2005)",
  "key": {"[1]": {"test_system": "rat spinal cord injury model of overactive bladder", "conditions": "cited from earlier work"}, "[2]": {"test_system": "bladder function of wild type (WT) and EP1 knockout (EP1KO) mice", "test": "Cystometry in conscious mice under intravesical instillation of PGE2", "assay_type": "in vivo, mouse", "conditions": "intravesical instillation of PGE2 (20 μM)", "protocol": "Animals: Age-matched female EP1 knockout (EP1KO) mice (DBA/1LacJ background) (n=13) and DBA/1LacJ wild type (WT) controls (n=12) were used for the studies. The knockout mice originated from Groton Laboratories, Pfizer Research and Development, the wild type from the Jackson Laboratories, USA. Both strains were delivered through Charles River Laboratories, UK. After arrival, the mice were housed for 6 weeks under identical conditions under a 12 hours light/dark photocycle, food and water were provided ad libitum. The experimental protocol was approved by the Animals Ethics Committee, Lund University.\nThe knockout and WT mice were randomly divided into 3 groups each. One third received bladder outlet obstruction (BOO) as described below, one third received sham surgery. The remaining mice served as unoperated controls.\nAt day 5 after the obstruction a polyethylene catheter (PE, ID 0.38 mm, OD 0.61 mm) with a small cuff was inserted in the bladder dome and secured with a purse-string suture (7-0 silk). The obstructing ligature remained in place. The catheter was tunneled subcutaneously, led out on the back of the neck, and surgically secured. Control animals received the bladder catheter 2 days prior to cystometry.\nCystometry: Two days after insertion of the catheter (7 days after creation of the obstruction), the cystometric investigation was performed without any anesthesia or restraint. The mice were placed into a metabolic cage (Gazzada, Buguggiatade, Italy). The bladder catheter was connected to a pressure transducer, which in turn was connected to a Grass® 7E Polygraph recorder. The bladder was continuously filled with saline at room temperature by means of a microinjecton pump (CMA 100, Carnegie Medicine, Solna, Sweden), at a filling speed of 25 μl/min.\nThe amount of voided urine was measured by means of a fluid collector, connected to a force displacement transducer (FT 03 D; Grass instrument Co., MA, USA). After a stabilization period of 60-80 minutes, in which the bladder was continuously filled, reproducible voiding patterns were achieved and recorded over a period of 30 minutes. The following parameters were measured: Micturition interval (time between 2 voids), baseline pressure (lowest pressure between 2 voids), threshold pressure (pressure immediately before micturition was initiated), micturition pressure (maximum voiding pressure), and micturition volume. Residual urine was emptied manually 3 times at the end of the cystometry and measured. Bladder capacity was calculated as the amount of saline infused into the bladder between 2 voids, plus the average amount of residual urine.\nThe animals were continuously observed in order to distinguish between moving artifacts and non-voiding bladder contractions. The surface of the collecting-funnel under the grid of the metabolic cage was sprayed with a thin layer of silicone.\nDrugs and solutions: PGE2 (Sigma Chemical Company, St. Louis, Mo., USA). PGE2 was dissolved in ethanol, and the stock solution was stored at a concentration of 10^−2 M at −70°. The final dilution of 20 μM was made in NaCl at the day of cystometry. (Normal Krebs solution was composed as following (mM): NaCl 119, KCl 4.6, CaCl2 1.5, MgCl2 1.2, NaHCO3 15, NaH2PO4 1.2, and glucose 11).\nData analysis: All values are reported as the mean±SEM. Statistical significance was determined by Student's t-test and Bonferroni correction as appropriate. P<0.05 was required for statistical significance."}, "human bladder": {"test_system": "human bladder", "conditions": "human volunteers, intravesical administration; cited from earlier work"}, "rat bladder": {"test_system": "rat bladder", "conditions": "rats, topical administration; cited from earlier work"}, "bladder of normal rats": {"test_system": "bladder of normal rats", "conditions": "cited from earlier work"}},
  "data": [
    {"smiles": "Cc1cc(Cl)ccc1S(=O)(=O)NC[C@H]1C2CCC(CC2)[C@@H]1/C=C\\CCCC(=O)O", "note": "[ONO-8711]", "values": [
      {"measurement": "bladder overactivity", "setting": "[1]", "result": "reduction in bladder overactivity"}
    ]},
    {"smiles": "CCCCC[C@H](O)/C=C/[C@H]1[C@H](O)CC(=O)[C@@H]1C/C=C\\CCCC(=O)O", "note": "[PGE2, prostaglandin E2]", "values": [
      {"measurement": "bladder capacity", "setting": "[2]; EP1 KO control mice", "result": "no effect"},
      {"measurement": "induction of non-voiding contractions", "setting": "[2]; EP1 KO control mice", "result": "no induction of non-voiding contractions"},
      {"measurement": "micturition interval", "setting": "[2]; EP1 KO control mice", "result": "no effect"},
      {"measurement": "micturition volume", "setting": "[2]; EP1 KO control mice", "result": "no effect"},
      {"measurement": "bladder capacity", "setting": "[2]; WT control mice", "result": "decreased"},
      {"measurement": "micturition interval", "setting": "[2]; WT control mice", "result": "decreased"},
      {"measurement": "micturition volume", "setting": "[2]; WT control mice", "result": "decreased"},
      {"measurement": "non-voiding contractions", "setting": "[2]; WT control mice", "result": "Frequent non-voiding contractions of high amplitude occurred"},
      {"measurement": "bladder capacity", "setting": "human bladder", "result": "decreased bladder capacity"},
      {"measurement": "sensations of urgency", "setting": "human bladder", "result": "gave rise to sensations of urgency"},
      {"measurement": "bladder activity and reflex micturition", "setting": "rat bladder", "result": "bladder hyperactivity and stimulation of reflex micturition"}
    ]},
    {"smiles": "CC(=O)NNC(=O)N1Cc2ccccc2Oc2ccc(Cl)cc21", "note": "[SC-19220]", "values": [
      {"measurement": "bladder capacity", "setting": "bladder of normal rats", "result": "increased bladder capacity"}
    ]}
  ]
}
